Laboratory results taken from US9522198B2, “Methods and compositions related to targeting tumors and wounds” (Sanford-Burnham Medical Research Institute, priority 2006, dated 2016).
“Also recorded” adds a separate entry of the source. Ends that are not written are not given here.

Experiments:
albumin = albumin (Homo sapiens, UniProt P02768); assay: Aggregate formation in albumin solution (turbidity); format: biochemical; conditions: added to an albumin solution
Text: CLT1 contains a sequence of three consecutive hydrophobic residues, LII (leucine-isoleucine-isoleucine). This motif is very similar to the VII sequence (V, valine) which causes proteins to form large insoluble aggregates (Esteras-Chopo et al. 2005). […] The ability of CLT1 to aggregate proteins correlates with its cytotoxicity for human umbilical venous endothelial cells (HUVECs).

B16F1 tumors = assay: Homing to B16F1 tumors in wild type, fibrinogen knockout and plasma fibronectin-deficient mice; format: in vivo, mouse
Text: Knockout mice were employed to study the role of fibrin(ogen) and fibronectin in the homing of the CLT peptides to tumors. Fibrinogen knockout mice are viable (Palumbo, J. S., Kombrinck, K. W., Drew, A. F., Grimes, T. S., Kiser, J. H. Jay L. Degen, J. L. & Bugge, T. H. (2000), Blood 96, 3302-3309) and were used as tumor recipients. Complete absence of fibronectin is lethal, but mice that lack plasma fibronectin can be generated by postnatally deleting the fibronectin gene in the liver (Sakai, T., Johnson, K. J., Murozono, M., Sakai, K., Magnuson, M. A., Wieloch, T., Cronberg, T., Isshiki, A., Erickson, H. P., & Fassler R. (2001) Nat. Med. 7, 324-30). The CLT peptides homed to B16F1 tumors grown in wild type C57BL/6 mice (n=10) producing a fibrillar meshwork (CLT1; FIG. 3D). In contrast, only faint, evenly distributed fluorescence was present in tumors (n=4) grown in the fibrinogen knockout mice (which lack the ability to produce fibrin) (FIG. 3E). […] Unlike in the fibrinogen knockout mice, there was no residual peptide binding to the tumors in the plasma fibronectin-deficient mice (FIG. 3H).
B16F1 mouse melanoma, Lewis lung carcinoma, C8161 human melanoma, MDA-MB-435 human breast cancer, and PPC-1 human prostate cancer cells (American Type Culture Collection) were maintained in RPMI or DMEM supplemented with 10% FCS. Human tumor cells (1×10^6) were injected into the mammary fat pad or the flank of nude BALB/c nu/nu mice to induce tumors. MMTV PyMT mice were provided by Dr. Robert Oshima (Burnham Institute for Medical Research, La Jolla, Calif.). […]
The mice were perfused through the heart 3 hours after the peptide injection and tissues removed for examination. […] Tissue fluorescence was quantified using Image-Pro Plus software. At least two images from representative microscopic fields were analyzed from each tissue sample and data from individual mice that received the same treatment (n=2-8) were pooled.

fibrin(ogen) = assay: Co-localization of injected peptide with fibrin staining in tumor sections; format: in vivo, mouse; conditions: MDA-MB-435 xenograft sections, i.v. injected peptide
Protocol: The mice were perfused through the heart 3 hours after the peptide injection and tissues removed for examination. For fibrin and fibronectin immunostaining, tissues were fixed with 4% paraformaldehyde and stained with biotinylated mouse fibrin(ogen) antiserum (Nordic Immunological Laboratories) or a polyclonal anti-mouse fibronectin (Chemicon), followed by streptavidin Alexa 594 or anti-rabbit Alexa 594 (Molecular Probes), respectively. For peptide overlay, sections of frozen OCT embedded tissue were incubated with 10 μg/ml fluorescein-conjugated peptide for 30 min at room temperature. Tissue fluorescence was quantified using Image-Pro Plus software. At least two images from representative microscopic fields were analyzed from each tissue sample and data from individual mice that received the same treatment (n=2-8) were pooled.

CGLIIQKNEC (also: cyclic, ring type not given here, fluorescein conjugate, site not given here) [CLT1, cyclic decapeptide from phage library screened on plasma clots; tested as fluorescein conjugate]
aggregate formation in albumin solution (albumin): not amyloidogenic | homing to B16F1 tumors (B16F1 tumors; plasma fibronectin-deficient mice): negative | homing to B16F1 tumors (B16F1 tumors; wild type C57BL/6 mice): produce a fluorescent meshwork | homing to B16F1 tumors (B16F1 tumors; wild type littermates of plasma fibronectin-deficient mice): homes | co-localization of peptide fluorescence with fibrin staining (fibrin(ogen)): co-localized; also recorded: overlapping distribution
